Values after ≈ are worked out from the molar mass of the structure shown.
Assays:
[1] = chemical stability: retention (%) after heating at 60° C. for 4 hours, by HPLC; assay type: physicochemical
Experimental: The chemical stability of the present compound was evaluated by determining the retention (%) after heating at 60° C. for 4 hours. In Table 5 are shown the test results together with those for spergualin as reference. The retention was determined by means of high performance liquid chromatography (HPLC). The column was packed with Nucleosil® 5C18. The solvent used for spergualin was a mixture (6:94) of acetonitrile -0.01M sodium pentanesulfonate +0.01M Na2 HPO4 (pH 3), while that for the compounds of this invention was a mixture of acetonitrile -0.005M sodium pentanesulfonate ±0.01M Na2 HPO4 (pH 3). The mixture ratio in the latter case was varied for each particular compound. For instance, a mixing ratio of 10:90 was used for Compound No. 9, while that of 7:93 for Compound No. 22.

[2] = tested on: mouse leukemia L-1210 cells; assay: growth inhibitory activity to cancer cells in vitro (L-1210, 48 hours); assay type: cell-based
In short: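 L-1210 cells from DBA/2 mouse ascites, cultured at 5×10^4 cells per well in RPMI 1640 with 10% FCS and 5 μM 2-mercaptoethanol, 37° C, CO2, for 48 h with compound. Cell counts by Coulter Counter gave % inhibition (1−T/C)×100, and IC50 was derived across concentrations.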

[3] = tested on: mouse leukemia L-1210; assay: therapeutic effect on implanted cancer in mice (L-1210, survival over 30 days); assay type: in vivo, mouse (BDF1); conditions: L1210, ip, 720 h, 6 days
In short: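 In vivo antileukemic activity was assessed using 5-week-old male BDF1 mice implanted i.p. with 10^5 L-1210 cells. Compound in physiological saline was given by daily intraperitoneal injection over 6 days beginning on the day of implantation; survival was monitored over a 30-day observation period, comparing treated with control groups.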

[4] = acute toxicity in mice (single intraperitoneal administration); conditions: mouse, in vivo, ip; mice, single i.p.; read-out: LD50 (median lethal dose on single administration)
Experimental: In Table 8 median lethal doses (LD50) of typical compounds of this invention are shown, measured in mice upon single intraperitoneal administration, as well as maximum tolerated doses in terms of total dose when a fixed amount per unit body weight was administered intraperitoneally to mice once a day for 6 consecutive days.
*Median lethal dose on single administration.

[5] = cumulative toxicity in mice (maximum tolerated dose, once a day for 6 consecutive days); conditions: mouse, in vivo, ip, i.p. once a day for 6 consecutive days, total dose, read-out: Maximum Tolerated Dose (total dose not causing death)
In short: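 Mice dosed intraperitoneally once a day for 6 consecutive days with a fixed amount per unit body weight. The value is the maximum total dose not causing death.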

Which results are given for `COC(NC(=O)CCCCCCNC(=N)N)C(=O)NCCCCNCCCN` (racemic) [Compound 9, N-[4-(3-aminopropyl)aminobutyl]-2-(7-guanidinoheptanamido)-2-methoxyethanamide]?
remaining at 4 h ([1]; pH 2, pH 2): 69.3%; remaining at 4 h ([1]; pH 3, pH 3): 89.3%; remaining at 4 h ([1]; pH 4, pH 4): 100%; remaining at 4 h ([1]; pH 5, pH 5): 100%; remaining at 4 h ([1]; pH 6, pH 6): 100%; remaining at 4 h ([1]; pH 7, pH 7): 100%; remaining at 4 h ([1]; pH 8, pH 8): 100%; remaining at 4 h ([1]; pH 9, pH 9): 97.5%; remaining at 4 h ([1]; pH 10, pH 10): 97.9%; inhibition at 5 µg/mL ([2]; L1210, 5 mcg/ml, read-out: Growth inhibition (%), (1-T/C) × 100): 35.5%; inhibition at 10 µg/mL ([2]; L1210, 10 mcg/ml, read-out: Growth inhibition (%), (1-T/C) × 100): 45.9%; inhibition at 20 µg/mL ([2]; L1210, 20 mcg/ml, read-out: Growth inhibition (%), (1-T/C) × 100): 62.3%; inhibition at 40 µg/mL ([2]; L1210, 40 mcg/ml, read-out: Growth inhibition (%), (1-T/C) × 100): 78.1%; inhibition at 80 µg/mL ([2]; L1210, 80 mcg/ml, read-out: Growth inhibition (%), (1-T/C) × 100): 90.9%; inhibition at 160 µg/mL ([2]; L1210, 160 mcg/ml, read-out: Growth inhibition (%), (1-T/C) × 100): 96%; IC50 ([2]; L1210, L-1210 cells, read-out: 50% inhibitory concentration): 12 µg/mL (≈ 29.9 µM); responders at 0.2 mg/kg ([3]; 0.20 mg/kg/day i.p., read-out: Number of mice survived for 30 days (converted)): 0%; response vs control in vivo at 0.2 mg/kg ([3]; 0.20 mg/kg/day i.p., read-out: Prolongation of survival period (%), T/C × 100): 114%; responders at 0.39 mg/kg ([3]; 0.39 mg/kg/day i.p., read-out: Number of mice survived for 30 days (converted)): 0%; response vs control in vivo at 0.39 mg/kg ([3]; 0.39 mg/kg/day i.p., read-out: Prolongation of survival period (%), T/C × 100): 171%; responders at 0.78 mg/kg ([3]; 0.78 mg/kg/day i.p., read-out: Number of mice survived for 30 days (converted)): 50%; response vs control in vivo at 0.78 mg/kg ([3]; 0.78 mg/kg/day i.p., read-out: Prolongation of survival period (%), T/C × 100): > 300%; responders at 1.56 mg/kg ([3]; 1.56 mg/kg/day i.p., read-out: Number of mice survived for 30 days (converted)): 25%; response vs control in vivo at 1.56 mg/kg ([3]; 1.56 mg/kg/day i.p., read-out: Prolongation of survival period (%), T/C × 100): > 411%; responders at 3.13 mg/kg ([3]; 3.13 mg/kg/day i.p., read-out: Number of mice survived for 30 days (converted)): 100%; response vs control in vivo at 3.13 mg/kg ([3]; 3.13 mg/kg/day i.p., read-out: Prolongation of survival period (%), T/C × 100): > 429%; responders at 6.25 mg/kg ([3]; 6.25 mg/kg/day i.p., read-out: Number of mice survived for 30 days (converted)): 100%; response vs control in vivo at 6.25 mg/kg ([3]; 6.25 mg/kg/day i.p., read-out: Prolongation of survival period (%), T/C × 100): > 429%; responders at 12.5 mg/kg ([3]; 12.5 mg/kg/day i.p., read-out: Number of mice survived for 30 days (converted)): 100%; response vs control in vivo at 12.5 mg/kg ([3]; 12.5 mg/kg/day i.p., read-out: Prolongation of survival period (%), T/C × 100): > 429%; responders at 25 mg/kg ([3]; 25 mg/kg/day i.p., read-out: Number of mice survived for 30 days (converted)): 0%; response vs control in vivo at 25 mg/kg ([3]; 25 mg/kg/day i.p., read-out: Prolongation of survival period (%), T/C × 100): 0%; responders at 50 mg/kg ([3]; 50 mg/kg/day i.p., read-out: Number of mice survived for 30 days (converted)): 0%; response vs control in vivo at 50 mg/kg ([3]; 50 mg/kg/day i.p., read-out: Prolongation of survival period (%), T/C × 100): 0%; LD50 [4]: 12.5 to 25 mg/kg; MTD [5]: > 75 mg/kg

— US4983328A, “N-(4-(3-aminopropyl)aminobutyl)-2-(ω-gua nidino-fatty-acid-amido(-2-substituted-ethanamide, salt thereof, and process for preparation thereof” (Bristol-Myers Company, priority 1981, dated 1991)
